Counter-ions that a name gives are not always drawn. Like-named read-outs stand apart in the source and are kept apart here.
How the values were obtained:
[1] = tested on: NMDA-stimulated 3H-acetylcholine release, striatum sections; test: Inhibition of NMDA-stimulated 3H-acetylcholine release from striatum sections of the rat brain; type: cell-based; conditions: preparation concentration 10 μM, 25 μmol/l NMDA stimulus, relative to control S2/S1, read-out: Inhibition of 3H-acetylcholine release from striatum sections, Inhibition (%)
Description: 2. Inhibition of ^3 H-acetylcholine release from striatum sections of the rat brain
Test principle: For the test, fresh striatum sections from rat brain were rinsed with buffer solution in a special chamber and the release of the tritium-labeled acetylcholine was measured after stimulation with NMDA. Preparations having NMDA-antagonist action inhibit acetylcholine release.
Experimental protocol: The superfusion experiments were carried out by the method of Wichman et al. (Naunyn-Schmied. Arch. Pharmacol., 338 (1988), 623-631). Rat brain sections, 0.5 mm thick, were preincubated for 30 min in 2 ml of incubation medium which contains 0.1 μmol/l of ^3 H-choline having a specific activity of 80 Ci/mmol. In each of 6 superfusion chambers, a section was transferred and superfused for 90 min at a rate of 1.5 ml/min. 2 min fraction of the superfusate were continuously collected. Each section was superfused twice with 25 μmol/l of NMDA of two minutes each time in order to stimulate the release of acetylcholine. The first stimulus (S1) takes place between the 54th and the 56th minute and the 2nd stimulus (S2) between the 76th and 78th minute. The incubation medium contained, in mmol/l: NaCl 118, KCl 4.8, CaCl2 1.2, MgSO4 1.2, NaHCO3 25, KH2 PO4 1.2 and glucose 10. The medium was saturated with Carbogen at 37° C. The pH was adjusted to 7.4 NMDA and the novel preparations to be tested were dissolved in superfusion medium. The superfusion was carried out using Mg^2+ -free medium. Tritium from the dissolved sections and from the superfusate was determined by liquid scintillation counting using a Packard® 1900 CA (Frankfurt) at a 50% efficiency.
Calculation of the Results
Basal release and NMDA-stimulated release for S1 and S2 were expressed in %/min of each fraction (Limberger et al, Naunyn Schmied. Arch. Pharmacol. 339 (1988), 53-61).
The value for the stimulated release S2 /S1 was calculated for the control as 0.69±0.09. The value decreases if a substance, such as, for example, the NMDA receptor antagonist CPP (3-(+)-2-carboxypiperazin-4-ylpropyl-1-phosphonic acid) known from the literature inhibited the NMDA-stimulated release. The inhibition of the stimulated release by preparations was calculated in percent, relative to the control value, and is indicated in Table 4.

[2] = tested on: NMDA receptor-channel complex; test: Inhibition of 3H-MK-801 binding to membranes from rat brain; conditions: preparation concentration 50 μM; 3H-MK801 1 nM
Description: 3. Inhibition of ^3 H-MK-801 binding to membranes from rat brain
Test principle: MK-801 is a non-competitive antagonist which binds to ion channels coupled to NMDA receptors (Yoneda et al., Brain Res. 499 (1989), 305). Membranes from whole brain containing preparation and ^3 H-MK-801 are incubated in the test. The binding of ^3 H-MK-801 or its displacement by preparations (antagonists) is determined by radiochemical methods.
Experimental protocol: The binding experiments are carried out by the method of Reynolds et al. (Proc. Natl. Acad. Sci. USA, 84 (1987), 7744). Membrane preparation is first carried out according to Reynolds. Test samples are then pipetted, buffer and test preparation being initially introduced, then preincubated with protein for 2 minutes, and initiated using ^3 H-MK801. The membranes are thawed at 37° C., incubated at 37° C. for 10 minutes and homogenized for 15 seconds at half the maximum speed by means of a Polytron, then used in the cool state again. The incubation medium contains: pH 7.4 Hepes buffer 20 mM, preparations in three concentrations 5 μM, 10 μM and 50 μM, membranes 500 μg/ml of test solution, ^3 H-MK801 1 nM. Incubation is carried out at room temperature (23° C.) for 60 minutes and is then stopped by filtration. For this purpose, glass fiber paper No. 32 from Schleicher and Schull, which had been soaked in 0.03% polyethyleneimine for 30 minutes on the day before the experiment are counted in 4 ml of "Packard 199™" Scintillation fluid (Frankfurt). Tritium is determined by liquid scintillation counting using a Packard 1500.
Calculation of the results: The calculation of the binding in femtomol/mg of protein over a period of 60 min. was carried out using a small calculator (HP-97). If a substance antagonizes the binding, the value decreases. Substance activities are indicated in Table 5 as percentages, i.e. in % binding compared to the control. The activity of the comparison preparation CPP (3-(+)-2-carboxypiperazin-4-ylpropyl-1-phosphonic acid) at 5 μM, 10 μM and 50 μM is always determined to check the test.

[3] = tested on: high affinity 3H-D-aspartate absorption, synaptic vesicles (synaptosomes) from rat cortex; test: "High affinity" absorption of 3H-aspartate in a vesicle preparation from rat brain; type: biochemical; conditions: relative to control values (100%)
Description: 1. "High affinity" absorption of ^3 H-aspartate in a vesicle preparation from rat brain.
Test principle: Fresh synaptic vesicles (synaptosomes) from rat cortex are incubated with buffer solution and ^3 H-D-aspartate and ^3 H-D-aspartate in the vesicles is measured. Preparations which in comparison to control synaptosomes increase the high affinity ^3 H-D-aspartate absorption and those which prevent the loss of ^3 H-D-aspartate by reliberation are regarded as particularly interesting.
Experimental protocol: The experiments for ^3 H-D-aspartate absorption were carried out by the method of Anand et al. (Biochem. Pharmacol., 35 (1986), 1055-1057). The synaptic vesicles were dissected out of cerebral cortex from male Sprague-Dawley rats. The preparations were tested at four concentrations as double samples in parallel with control samples containing buffer. The incubation medium (pH 7.4) contains: 1.2 mM KH2 PO4, 5 mM KCl, 5 mM pyruvate, 1.2 mM glucose, 1.2 mM MgCl2, 114 mM NaCl, 25 mM NaHCO3. For the non-specific ^3 H-D-aspartate absorption, NaCl was replaced by 114 mM choline chloride and NaHCO3 by 25 mM KHCO3. An aliquot of the vesicle suspension (about 25 μg/ml of test solution) was added to the test sample which was temperature controlled at 37° C. and aerated with Carbogen (5% CO2, 95% O2) and preincubated for 2 minutes. The three minutes incubation for the amino acid absorption was started by addition of 50 μl of ^3 H-D-aspartate (specific activity 25 Ci/mmol, 10 pmol/ml of test solution). The vesicles were separated from the incubation medium by filtration and additional washing of the adhering labeled amino acids using a Titertek cell harvester (Flow Laboratories, Meckenheim). The ^3 H-D-aspartate absorption was measured by means of a liquid scintillation counter (Canberra-Packard, Model 1500, Frankfurt).
The preparation activity is indicated in percent of the specific ^3 H-D-aspartate absorption, relative to control values (100%), in Table 3. Adenosine triphosphate (ATP) was used for comparison as the standard substance (see Table 3) and at 1 mM caused a 35% increase in the ^3 H-D-aspartate absorption.

[4] = tested on: NMDA-induced cramps; test: Inhibition of NMDA-induced cramps in the mouse; type: in vivo; conditions: po, 1 h
Description: 4. Inhibition of NMDA-induced-cramps in the mouse
The examples listed below show neuroprotective activity in that they antagonize the cramps induced by NMDA (N-methyl-(D)-aspartate). To this end, intravenous injections of 20-30 mg/kg of NMDA are carried out on a male NMRI (Naval Medical Research Institute) mice of 22-24 g body weight, which leads to stereotypes, clonic cramps and in the majority of cases to mortality. In order to investigate an NMDA-antagonist activity of the test substances, they are administered orally one hour before NMDA. The animals are then observed for the abovementioned symptoms for up to 60 min. The number of animals with clonic cramps and the incidence of mortality, expressed in percent change compared to the control group, is regarded as the evaluation criterion.

[5] = Toxicity (LD50) in the mouse; conditions: in vivo, iv
From the text: As the examples investigated show considerable differences in toxicity compared to the standard substances, the LD50 values are also listed in Table 6,

[6] = tested on: CA1 pyramidal cells of the hippocampus after forebrain ischemia; test: Neuroprotection after forebrain ischemia in the gerbil; conditions: 50 mg/kg p.o., 15 minutes before ischemia
Description: A 5-minutes' ischemia of the forebrain with subsequent recirculation is produced in 20 male Mongolian gerbils under halothane anesthesia by bilateral closure of the corotid artery by means of aneurysm clips. 7 days later, the animals are decapitated under halothane anesthesia, the brains are fixed by immersion in Carnoy solution and the extent of neuron damage in the CA1 region of the hippocampus is determined "blind" with the aid of a 5-stage histopathological score. The test substance is administered intraperitoneally or orally 15 minutes before ischemia to each group of 10 gerbils. One ischemic control group, also of 10 animals, is treated with the respective solvents per test substance.

SMILES	inhibition at 10 µM [1]	Inhibition of 3H-MK-801 binding to the NMDA receptor-channel complex, inhibition (%) [2]	other results
O=C(O)C1CN(CCCP(=O)(O)O)CCN1 (racemic) [CPP, 3-(+)-2-carboxypiperazin-4-ylpropyl-1-phosphonic acid, reference compound]	30%	81%	
Cl.NCc1cc(CCC(=O)OCc2ccccc2)no1 [Example 5, Benzyl 5-aminomethylisoxazole-3-propionate hydrochloride]		78%	Stimulation of the 3H-D-aspartate absorption, Stimulation (%) ([3]; preparation concentration 10 μM): 26%
CC(C)[C@@H]1CC[C@@H](C)C[C@H]1OC(=O)C1CC(C(=O)O)=NO1 (single isomer, unassigned; (-)) [Example 57, (-)-menthyl-3-carboxy-2-isoxazoline-5-yl-carboxylatedicyclohexylammonium salt]		43%	
O=C(O)c1cc(CNCc2ccccc2)on1 [Example 2, 5-Benzylaminomethyl-3-carboxyisoxazole]		10%	Stimulation of the 3H-D-aspartate absorption, Stimulation (%) ([3]; preparation concentration 500 μM): 12%
CC(C)[C@@H]1CC[C@@H](C)C[C@H]1OC(=O)CCc1cc(CNC(=O)[C@@H](N)Cc2ccccc2)on1 [Example 21, (-)-Menthyl 5-(L-phenylalanylamino)methylisoxazole-3-propionatehydrochloride]	20%	45%	inhibition in vivo at 50 mg/kg ([4]; 50 mg/kg p.o., one hour before NMDA i.v., change compared to control group, read-out: Inhibition of convulsions): 30%; inhibition in vivo at 50 mg/kg ([4]; read-out: Inhibition of mortality): 40%; LD50 [5]: 25 to 50 mg/kg
CC(C)[C@H]1CC[C@H](C)C[C@@H]1OC(=O)CCc1cc(C[N+](C)(C)C)on1 [Example 19, (+)-Menthyl 5-trimethylammoniomethylisoxazole-3-propionate iodide]	16%	16%	Cell necroses (% change) ([6]; histopathological score CA1, treated versus control group): -25 % change; Behavior score (% change) ([6]; treated versus control group): 0 % change; Stimulation of the 3H-D-aspartate absorption, Stimulation (%) ([3]; preparation concentration 100 μM): 25%
